Data taken from PubChem BioAssay AID651630 (Sanford-Burnham Center for Chemical Genomics, 2012).
Calls of active or inactive are those of the source.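 Rule for the calls: active = lipid-stain IC50 at or below a set limit, with nuclear-stain toxicity IC50 at least five times higher; inactive = the rest.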

Columns and labels:
DAPI = test: TAG lipid buildup inhibition with viability readout – cell-based, panel, Nile Red and DAPI fluorescence, H9c2, dose response (AID 651630); conditions: H9c2 cells, DAPI nuclear fluorescence (cytotoxicity counter-readout), oleic acid;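 note: cells exposed to compound overnight before fixation and staining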
TAG = test: as above; conditions: H9c2 cells, Nile Red TAG fluorescence, oleic acid

SMILES	IC50 cytotoxicity (DAPI nuclear signal decrease) (DAPI; mean of runs)	IC50 cytotoxicity (DAPI nuclear signal decrease) (DAPI; run 1) [µM]	IC50 cytotoxicity (DAPI nuclear signal decrease) (DAPI; run 2) [µM]	IC50 (TAG; mean of runs)	IC50 (TAG; run 1) [µM]	IC50 (TAG; run 2) [µM]
CCOc1ccc2nc(NC(=O)C3CCCN(S(=O)(=O)c4c(C)noc4C)C3)sc2c1 (centres undefined)	> 25 µM (inactive)	> 25	> 25	5 µM	4.04	5.97
COc1ccc(NC(=O)C2(C)Cc3c(-c4cccc(C(N)=O)c4)ccnc3O2)cc1 (centres undefined)	> 25 µM (inactive)	> 25	> 25	–	> 25	12.1
COc1ccc(-c2cc(NC=O)c3ncc(-c4cc(OC)c(OC)c(OC)c4)n3c2)c(OC)c1	> 25 µM (inactive)	> 25	> 25	> 25 µM (inactive)	> 25	> 25
Cc1ccc(NC(=O)c2nc[nH]c2C(=O)NCCCCCCNC(=O)c2[nH]cnc2C(=O)Nc2ccc(C)cc2)cc1	> 25 µM (inactive)	> 25	> 25	9.03 µM	8.97	9.09
O=C(Nc1ccc([N+](=O)[O-])cn1)c1cc(-c2cccc(Cl)c2)nc2ccccc12	–	> 25	> 25	3.69 µM	3.93	3.46
CN(C)c1ccc(NC(=O)CSc2nc3ccccc3c(=O)n2C2CCCCC2)cc1	> 25 µM (inactive)	> 25	> 25	–	> 25	20
Cc1cccn2c(=O)c3cc(C(=O)NC4CCCC4)c(=N)n(C4CCCC4)c3nc12	> 25 µM (inactive)	> 25	> 25	11.9 µM	8.07	15.8
COc1cc(C(=O)N2CCN(c3cc(Cl)ccc3Cl)CC2)cc(OC)c1OC	> 25 µM (inactive)	> 25	> 25	> 25 µM (inactive)	> 25	> 25
COc1ccc(Nc2cc(=O)oc3ccccc23)cc1	> 25 µM (inactive)	> 25	> 25	> 25 µM (inactive)	> 25	> 25
CCCCCCN(C(=O)CCCCCN1C(=O)NC(c2ccc([N+](=O)[O-])cc2)C(C(=O)OCc2ccccc2)=C1C)C(C(=O)NCCCC)C1CCCCC1 (centres undefined)	> 25 µM (inactive)	> 25	> 25	5.66 µM	3.7	7.62
COc1cc(-c2cc3nc(NCCOc4ccccc4)ccn3n2)cc(OC)c1OC	> 25 µM (inactive)	> 25	> 25	18.9 µM (inactive)	16.7	21.2
CCC(C)(C)NC(=O)C(c1ccc(OC)cc1)N(CC1CCCO1)C(=O)CCC(=O)Nc1cc(C)on1 (centres undefined)	> 25 µM (inactive)	> 25	> 25	7.02 µM	8.17	5.88
CCN1CCN(Cc2ccc(NC(=O)c3cc(NC(=O)c4cc5cccc(OC)c5o4)cc(OC)c3)cc2C(F)(F)F)CC1	> 25 µM (inactive)	> 25	> 25	13.9 µM	12.7	15.1
Nc1c(Cl)cc(-c2csc(N3CCCC3c3nc4cc(Cl)c(Cl)cc4n3CCCO)n2)cc1Cl (centres undefined)	> 25 µM (inactive)	> 25	> 25	8.37 µM	7.74	9
O=C1C(Cl)=C(NCc2ccco2)C(=O)c2ccccc21	> 25 µM (inactive)	> 25	> 25	> 25 µM (inactive)	> 25	> 25
CN(C)CCNC(=O)c1cccc(-c2cnc3c(NC=O)cc(-c4cccc(C(F)(F)F)c4)cn23)c1	> 25 µM (inactive)	> 25	> 25	> 25 µM (inactive)	> 25	> 25
Cc1ccc(/C=N/NC(=O)c2c(C)nc3ccc(Br)cn23)cc1	> 25 µM (inactive)	> 25	> 25	> 25 µM (inactive)	> 25	> 25

SMILES	IC50 cytotoxicity (DAPI nuclear signal decrease) (DAPI; mean of runs)	IC50 cytotoxicity (DAPI nuclear signal decrease) (DAPI; run 1) [µM]	IC50 cytotoxicity (DAPI nuclear signal decrease) (DAPI; run 2) [µM]	IC50 (TAG; mean of runs)	IC50 (TAG; run 1) [µM]	IC50 (TAG; run 2) [µM]
S=C(N/N=C/c1cccs1)NC1CC2CCC1C2 (centres undefined)	> 25 µM (inactive)	> 25	> 25	8.53 µM	4.71	12.3
O=C(/C=C/c1ccc(OCCCF)cc1)NCc1ccc(Cl)c(Cl)c1	> 25 µM (inactive)	> 25	> 25	–	> 25	21.3
Cc1cccc(Oc2nc(-c3ccccn3)nc3ccccc23)c1	> 25 µM (inactive)	> 25	> 25	> 25 µM (inactive)	> 25	> 25
Cc1ccc(-c2nn3c(C)nnc3c3ccccc23)cc1S(=O)(=O)NC(C)c1ccccc1 (centres undefined)	> 25 µM (inactive)	> 25	> 25	19.7 µM (inactive)	18.7	20.6
COc1cc(/C=C2/NC(=O)N(Cc3ccccc3F)C2=O)ccc1O	> 25 µM (inactive)	> 25	> 25	> 25 µM (inactive)	> 25	> 25
CCCCCc1cc(=O)oc2c(C(CCN(CC)CC)c3ccc(OC)cc3)c(OC)cc(OC)c12 (centres undefined)	> 25 µM (inactive)	> 25	> 25	> 25 µM (inactive)	> 25	> 25
CCCCc1ccc(N=N/C(C(=O)Nc2cc(OC)c(NC(C)=O)cc2OC)=C(/C)O)cc1	> 25 µM (inactive)	> 25	> 25	10.1 µM	11.4	8.79
Cc1ccc(NC(=O)c2cc([N+](=O)[O-])ccc2NCc2cccnc2)cc1Cl	> 25 µM (inactive)	> 25	> 25	14 µM	10.5	17.6
O[C@H]1CN(CC2CCCCC2)[C@@H](c2ccc(Cl)cc2)C[C@@H]1n1cc(-c2ccc(F)cc2)nn1	> 25 µM (inactive)	> 25	> 25	–	18.5	> 25
CC(C)c1ccc(NC(=O)Nc2nc(C(N)C3CCCCC3)cs2)cc1 (centres undefined)	17.3 µM (inactive)	16	18.6	8.38 µM	8.24	8.53
Cc1cc(C)cc(-n2c3ccc(NC(=O)Cc4cccc5ccccc45)cc3c(=O)n2C)c1	> 25 µM (inactive)	> 25	> 25	–	21.7	> 25
CC(Sc1nc(NCc2ccccc2)nc(N2CCOCC2)n1)C(=O)Nc1ccccc1 (centres undefined)	–	> 25	> 25	1.44 µM	1.29	1.58
COC(=O)[C@@]1(Cc2ccc(F)cc2)[C@H]2c3cc(C(=O)N4CCCC4)n(CCCNc4ncc(C(F)(F)F)cc4Cl)c3C[C@H]2CN1C(=O)c1ccccc1	–	> 25	> 25	2.58 µM	2.76	2.41
Cc1onc(-c2ccc(Cl)cc2Cl)c1-c1csc(N/N=C/c2ccccc2)n1	> 25 µM (inactive)	> 25	> 25	> 25 µM (inactive)	> 25	> 25
N#C/C(=C\Nc1ccc2cn[nH]c2c1)c1nc(-c2ccc(Cl)cc2)cs1	17.8 µM (inactive)	23.7	12	11.1 µM	8.39	13.8
CCOC(=O)c1cc(-c2ccccc2)sc1NC(=O)COC(=O)c1cccc(S(N)(=O)=O)c1	> 25 µM (inactive)	> 25	> 25	–	> 25	21.4
